Test results from patent US20140155445A1, “Compounds and Methods for Treating Cancer and Diseases of the Central Nervous System” (Osta Biotechnologies Inc., priority 2007, published 2014).
Where a name gives a salt, the structure may show the parent alone. Read-outs that look alike come from different tables or passages of the source.

Assays:
HO-1 (rat spleen) = target: T1, HO-1 (rat spleen) (Rattus norvegicus, UniProt P06762); test: HO enzymatic activity in rat spleen microsomal fraction (CO formed from methemalbumin, gas chromatography); format: biochemical
T1 construct: Spleen microsomes were used as a source of HO-1; from tissue; host or cells: spleen microsomal fraction of adult male Sprague-Dawley rats
T1 sequence (P06762 1-289): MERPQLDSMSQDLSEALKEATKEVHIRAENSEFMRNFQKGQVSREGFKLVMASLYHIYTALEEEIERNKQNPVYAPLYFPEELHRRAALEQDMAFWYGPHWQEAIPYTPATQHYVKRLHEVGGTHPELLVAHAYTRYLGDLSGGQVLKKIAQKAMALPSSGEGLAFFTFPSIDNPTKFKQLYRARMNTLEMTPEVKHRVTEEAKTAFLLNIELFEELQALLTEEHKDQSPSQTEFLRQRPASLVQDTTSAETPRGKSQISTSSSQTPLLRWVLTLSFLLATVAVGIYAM

HO-2 (rat brain) = target: T2, HO-2 (rat brain) (Rattus norvegicus, UniProt P23711); test: HO enzymatic activity in rat brain microsomal fraction (CO formed from methemalbumin, gas chromatography); format: biochemical
T2 construct: brain microsomes were used as a source of HO-2; from tissue; host or cells: brain microsomal fraction of adult male Sprague-Dawley rats
T2 sequence (P23711 1-315): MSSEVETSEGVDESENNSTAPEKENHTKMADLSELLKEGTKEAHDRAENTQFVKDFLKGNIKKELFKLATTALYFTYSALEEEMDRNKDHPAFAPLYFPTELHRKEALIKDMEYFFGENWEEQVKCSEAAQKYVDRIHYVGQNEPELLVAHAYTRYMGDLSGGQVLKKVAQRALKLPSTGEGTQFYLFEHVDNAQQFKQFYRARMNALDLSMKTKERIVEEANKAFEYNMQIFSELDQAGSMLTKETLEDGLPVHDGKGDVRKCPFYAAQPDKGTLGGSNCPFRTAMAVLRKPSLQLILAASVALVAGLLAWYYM

[1] = rat spleen microsomes, average ± standard deviation of replicate experiments, read-out: IC50 HO-1 (rat spleen)/μM
[2] = rat brain microsomes, average ± standard deviation of replicate experiments, read-out: IC50 HO-2 (rat brain)/μM

Row | Compound | IC50 (HO-1 (rat spleen)) | IC50 (HO-2 (rat brain)) | IC50 (HO-1 (rat spleen); [1]) | IC50 (HO-2 (rat brain); [2]) | IC50 (HO-2 (rat brain); rat brain microsomes, average ± standard deviation of replicate experiments, hydrochloride, read-out: IC50 HO-2 (rat brain)/μM)
1 | COc1ccc(CCN2CCC(Nc3nc4ccccc4[nH]3)CC2)cc1 | > 100 µM | > 100 µM |  |  | 
2 | O=C(Cn1ccnc1)c1ccc(OCc2ccccc2)cc1 [1-(4-Benzyloxy-phenyl)-2-(1H-imidazol-1-yl)-ethanone] |  |  | 11 ± 3 µM | > 100 µM | 
3 | c1ccc(CCC2(Cn3cnc(-c4ccccc4)c3)OCCO2)cc1 [1-(2-Phenethyl-[1,3]dioxolan-2-ylmethyl)-4-phenyl-1H-imidazole hydrochloride] |  |  | > 100 µM | > 100 µM | 
4 | c1cn(CCC23CC4CC(CC(C4)C2)C3)cn1 [1-(2-adamantan-1-yl-ethyl)-1H-imidazole hydrochloride] |  |  | 3 ± 1 µM | > 100 µM | 
5 | c1ccc(Cn2ccnc2)cc1 [1-Benzyl-1H-imidazole hydrochloride] | 44 ± 9 µM | > 100 µM |  |  | 
6 | CSc1ncnn1CC(=O)CCc1ccccc1 [1-(5-Methylsulfanyl-[1,2,4]triazol-1-yl)-4-phenyl-butan-2-one hydrochloride] |  |  | > 100 µM | > 100 µM | 
7 | COC(=O)Nc1nc2cc(C(=O)c3ccc(F)cc3)ccc2[nH]1 [Flubendazol, reference compound] |  |  | > 100 µM | > 100 µM | 
8 | c1ccc(SCCCn2ccnc2)cc1 [1-(3-phenylsulfanyl-propyl)-1H-imidazole hydrochloride] |  |  | 2.4 ± 0.2 µM | 16 ± 2 µM | 
9 | Fc1ccc(COC(Cn2ccnc2)c2ccc(CCc3ccccc3)cc2)cc1 (racemic) [(±)-1-[2-(4-fluoro-benzyloxy)-2-(4-phenethyl-phenyl)-ethyl]-1H-imidazole] |  |  | ~7 µM | > 100 µM | 
10 | c1ccc2[nH]c(CN3CCCC3)nc2c1 |  |  | > 100 µM | > 100 µM | 
11 | O=C(Cn1ccnc1)c1ccc2ccc3cccc4ccc1c2c34 [2-Imidazol-1-yl-1-pyren-1-yl-ethanone hydrochloride] |  |  | 14 ± 3 µM | > 100 µM | 
12 | O=C(CCc1ccccc1)Cn1nc2ccccc2n1 [1-Benzotriazol-2-yl-4-phenyl-butan-2-one] |  |  | > 100 µM | > 100 µM | 
13 | O=C(Cn1cncn1)c1ccc2c(c1)CCCC2 [1-(5,6,7,8-tetrahydro-naphthalen-2-yl)-2-[1,2,4]triazol-1-yl-ethanone] |  |  | 0.24 ± 0.04 µM | 4 ± 1 µM | 
14 | Imidazole [reference compound] |  |  | > 100 µM | > 100 µM | 
15 | O=C(CCc1ccccc1)Cn1nnnc1-c1ccccc1 [4-Phenyl-1-(5-phenyl-tetrazol-1-yl)-butan-2-one] |  |  | > 100 µM | > 100 µM | 
16 | O=C(CCc1ccccc1)Cn1nc(-c2ccccc2)nc1-c1ccccc1 [1-(3,5-Diphenyl-[1,2,4]triazol-1-yl)-4-phenyl-butan-2-one] |  |  | > 100 µM | > 100 µM | 
17 | O=C(CCc1ccccc1)Cn1cnc(-c2ccccc2)c1 [drawing 256, 4-Phenyl-1-(4-phenyl-1H-imidazol-1-yl)-butan-2-one hydrochloride] |  |  | 32 ± 2 µM | > 100 µM | 
18 | CCC(=O)Cn1ccnc1 [1-(1H-Imidazol-1-yl)-butan-2-one hydrochloride] |  |  | > 100 µM | > 100 µM | 
19 | Clc1ccc(CC[C@@]2(Cn3ccnc3)OC[C@@H](CSc3ccc4ccccc4c3)O2)cc1 [(2R,4S)-1-[2-[2-(4-chloro-phenyl)-ethyl]-4-(naphthalen-2-ylsulfanylmethyl)-[1,3]dioxolan-2-ylmethyl]-1H-imidazole hydrochloride] |  |  | 0.9 ± 0.1 µM | 30 ± 4 µM | 
20 | O=C(Cn1ccnc1)c1ccc(CCc2ccccc2)cc1 [2-imidazol-1-yl-1-(4-phenethyl-phenyl)ethanone hydrochloride] |  |  | 4 ± 2 µM | 0.9 ± 0.1 µM | 
21 | Clc1ccc(OCCCCCNc2nc3ccccc3[nH]2)cc1 [(1H-Benzoimidazol-2-yl)-[5-(4-chloro-phenoxy)-pentyl]-amine] |  |  | ~98 µM | ~105 µM | 
22 | c1cn(CCCCc2ccc(CCCCn3ccnc3)cc2)cn1 [1,4-bis[(4-1H-imidazol-1-yl)butyl]benzene dihydrochloride] |  |  | 0.4 ± 0.1 µM | 8 ± 2 µM | 

Row | Compound | IC50 (HO-1 (rat spleen)) | IC50 (HO-2 (rat brain)) | IC50 (HO-1 (rat spleen); [1]) | IC50 (HO-2 (rat brain); [2]) | IC50 (HO-2 (rat brain); rat brain microsomes, average ± standard deviation of replicate experiments, hydrochloride, read-out: IC50 HO-2 (rat brain)/μM)
23 | FC(F)(F)c1ccc(CCCCn2ccnc2)cc1 [1-[4-(4-(Trifluoromethyl)phenyl)butyl]-1H-imidazole hydrochloride] |  |  | 0.38 ± 0.09 µM | > 100 µM | 
24 | OC(Cn1ccnc1)c1ccc(-c2ccc(Br)cc2)cc1 (racemic) [drawing 342, (±)-1-(4′-bromo-biphenyl-4-yl)-2-imidazol-1-yl-ethanol] |  |  | 0.06 ± 0.03 µM | > 100 µM | 
25 | Oc1ccc(OCC2CO[C@@](CCc3ccc(Cl)cc3)(Cn3ccnc3)O2)cc1 (stereo in doubt) [(2R,4S)-2-[2-(4-chlorophenyl)ethyl]-2-[(1H-imidazol-1-yl)methyl]-4-[(4-hydroxyphenyloxy)meth-yl]-1,3-dioxolane hydrochloride] |  |  | 1.8 ± 0.5 µM | 7.1 ± 0.7 µM | 
26 | OC(CCc1ccccc1)Cn1ncnn1 (racemic) [(±)-4-phenyl-1-tetrazol-2-yl-butan-2-ol hydrochloride] | > 100 µM | > 100 µM |  |  | 
27 | CCOC(=O)N1CCC(Nc2nc3ccccc3n2Cc2ccc(F)cc2)CC1 |  |  | > 100 µM | > 100 µM | 
28 | Clc1ccc(CC[C@@]2(Cn3ccnc3)OC[C@@H](CSc3ccccc3Br)O2)cc1 [(2R,4S)-1-{4-(2-bromo-phenylsulfanylmethyl)-2-[2-(4-chloro-phenyl)-ethyl]-[1,3]dioxolan-2-ylmethyl}-1H-imidazole hydrochloride] |  |  | 6 ± 1 µM | 12.3 ± 0.5 µM | 
29 | CC(O)C(Cc1ccc(Cl)cc1)n1ccnc1 (racemic) [(±)-4-(4-chlorophenyl)-3-imidazol-1-yl-butan-2-ol hydrochloride] | 40 ± 2 µM | > 100 µM |  |  | 
30 | Brc1ccc(CCC2(Cn3ccnc3)OCCO2)cc1 [2-[2-(4-bromophenyl)ethyl]-2-[(1H-imidazol-1-yl)methyl]-1,3-dioxolane hydrochloride] |  |  | 1.9 ± 0.2 µM |  | > 100 µM
31 | Clc1ccc(CC[C@@]2(Cn3ccnc3)OC[C@@H](Cn3ccnc3)O2)cc1 [(2R,4R)-2-[2-(4-chlorophenyl)ethyl]-2-[(1H-imidazol-1-yl)methyl]-4-[(1H-imidazol-1-yl)methyl]-1,3-dioxolane dihydrochloride] |  |  | 10 ± 6 µM | 26 ± 3 µM | 
32 | FC[C@@H]1CO[C@@](CCc2ccc(Cl)cc2)(Cn2ccnc2)O1 [drawing 85, (2R,4S)-2-[2-(4-chlorophenyl)ethyl]-2-[(1H-imidazol-1-yl)methyl]-4-(fluoromethyl)-1,3-dioxolane hydrochloride] |  |  | 1.2 ± 0.01 µM | 4.4 ± 0.4 µM | 
33 | O=C1c2ccccc2CC1n1ccnc1 (racemic) [(±)-2-imidazol-1-yl-indan-1-one hydrochloride] |  |  | > 100 µM | > 100 µM | 
34 | Nc1ccccc1SC[C@H]1CO[C@](CCc2ccc(Cl)cc2)(Cn2ccnc2)O1 [(2S,4R)-2-[2-(4-chlorophenyl)ethyl]-2-[(1H-imidazol-1-yl)methyl]-4-[{(2-aminophenyl)thio}meth-yl]-1,3-dioxolane hydrochloride] |  |  | ~4.2 µM | > 100 µM | 
35 | O=C(CCn1ccnc1)C12CC3CC(CC(C3)C1)C2 [1-adamantan-1-yl-3-imidazol-1-yl-propan-1-one hydrochloride] |  |  | 3.5 ± 0.8 µM | ~100 µM | 
36 | Clc1ccc(CC[C@@]2(Cn3ccnc3)OC[C@@H](CSc3ccc(Cl)cc3)O2)cc1 [(2R,4S)-2-[2-(4-chlorophenyl)ethyl]-2-[(1H-imidazol-1-yl)methyl]-4-[{(4-chlorophenyl)thio}meth-yl]-1,3-dioxolane hydrochloride] |  |  | 2.8 ± 0.4 µM | 12 ± 5 µM | 
37 | Clc1ccc(C2(Cn3ccnc3)OCCO2)c(Cl)c1 [1-[2-(2,4-dichloro-phenyl)-[1,3]dioxolan-2-ylmethyl]-1H-imidazole hydrochloride] |  |  | 29 ± 14 µM | > 100 µM | 
38 | Clc1ccc(C2(Cn3ccnc3)OCCO2)cc1Cl [1-[2-(3,4-dichloro-phenyl)-[1,3]dioxolan-2-ylmethyl]-1H-imidazole] |  |  | 8 ± 2 µM | > 100 µM | 
39 | O=C(Cn1ccnc1)c1cccs1 |  |  | > 100 µM | > 100 µM | 
40 | [O-][S+](CCCCn1ccnc1)c1ccccc1 (centres unmarked) [1-(4-benzenesulfinyl-butyl)-1H-imidazole hydrochloride] |  |  | 18.44 ± 0.04 µM | 31 ± 5 µM | 
41 | Cc1ccc(S(=O)(=O)OC[C@H]2CO[C@](CCc3ccc(Cl)cc3)(Cn3ccnc3)O2)cc1 [(2S,4R)-2-[2-(4-chlorophenyl)ethyl]-2-[(1H-imidazol-1-yl)methyl]-4-[(p-toluenesulfonyloxy)meth-yl]-1,3-dioxolane] | 17 ± 1 µM | 120 ± 34 µM |  |  | 
42 | c1ccc(SCCn2ccnc2)cc1 [1-(2-phenylsulfanyl-ethyl)-1H-imidazole hydrochloride] |  |  | 6 ± 0.1 µM | > 100 µM | 
43 | c1ccc(Cc2ccc(C3(Cn4ccnc4)OCCO3)cc2)cc1 [1-[2-(4-benzyl-phenyl)-[1,3]dioxolan-2-ylmethyl]-1H-imidazole hydrochloride] |  |  | 4.98 ± 0.08 µM | > 100 µM | 
